Source: patent US20250002450A1, “CATIONIC STEROID COMPOUNDS, METHOD OF OBTAINING THEREOF, FORMULATIONS COMPRISING THEREOF AND THEIR USES” (UNIVERSIDADE DO PORTO, priority 2021, published 2025)
Values after ≈ are worked out from the molar mass of the structure shown.

Key:
C. albicans ATCC 10231 [1] = assay: Mitochondrial dehydrogenases activity, MTT reduction assay; type: cell-based, Candida albicans; details: 8 μg/mL, 2 h
Experimental: In order to determine whether compound 1 could also affect mitochondrial function, MTT reduction assay was performed. In this assay, tetrazolium salts are reduced to purple formazan derivatives by mitochondrial dehydrogenases, which can be measured spectrophotometrically and reported to mitochondrial activity and, indirectly, to cell viability. In this assay, cells were exposed to the test compounds for 2 h ([FIG. 11]). […] An increase in reactive oxygen species (ROS) has been linked to azoles activity: even though their primary mode of action is the inhibition of ergosterol synthesis, they also induce accumulation of ROS, which enhances their antifungal activity and translates into an increase in mitochondrial activity at inhibitory concentrations. […] Mitochondrial dehydrogenase activity was evaluated by the MTT assay, as previously described, with some modifications. Cell suspensions of C. albicans ATCC 10231 were prepared in the same manner as described above and, after overnight incubation at 36° C., were centrifuged at 3500 rpm for 15 min, the supernatant was removed, and the cells were carefully resuspended in 2 mL of RPMI. Test conditions and controls were the same as described above, but the time of exposure to the test compounds was 2 h. After the exposure time, cell suspensions were centrifuged at 3500 rpm for 10 min, the supernatant was removed, and 500 μL of MTT solution (0.5 mg/mL in RPMI, at 35° C.) (Thiazolyl Blue Tetrazolium Bromide, Alfa Aesar, Ward Hill, MA, USA) were added. After a 1 h incubation at 35° C., the insoluble formazan product resulting from the conversion of MTT by mitochondrial dehydrogenases of metabolically active cells was solubilized with 300 μL of DMSO. 100 μL of each sample were transferred in duplicate to a microtiter plate and the extent of the reduction of MTT to formazan was quantified by measuring the absorbance at 570 nm. Three independent assays were performed in duplicate, and the results are expressed as percentage of MTT reduction, using the untreated cells as control.

C. albicans ATCC 10231 [2] = assay: Ergosterol binding assay; type: cell-based, Candida albicans
Experimental: Ceragenins have been described to interact with the lipophilic environment of microbial membranes and ergosterol is the major sterol component of fungal plasma membrane, and the target of several antifungals. As such, in order to evaluate the ability of compound 1 to bind to membrane ergosterol of C. albicans ATCC 10231, MICs were determined in the absence and presence of exogenous ergosterol ([FIG. 10]). If the tested compound has the ability to perturb membrane integrity by binding to ergosterol, is expected that, in the presence of exogenous ergosterol, the compound binds to it, decreasing the amount of compound available to bind to membrane ergosterol, therefore increasing the MIC. Amphotericin B was used as a positive control for this assay and MICs obtained were 8 times higher in the presence of 400 μg/mL of exogenous ergosterol than in its absence (2 to 16 μg/mL, data not shown). […] The ability of compound 1 to bind to membrane ergosterol of C. albicans ATCC 10231, was evaluated by the ergosterol binding assay, as previously described. Briefly, MICs of compound 1 were determined by broth microdilution, as described above, in the absence and presence of ergosterol (Sigma-Aldrich, St. Louis, MO, USA) at a final concentration of 400 μg/mL. Ergosterol was prepared immediately before being added to the plates, by maceration and dissolution in DMSO. The formed emulsion was then homogenized, heated to increase solubility, and diluted in RPMI. Amphotericin B was used as positive control. Plates were incubated at 35° C. for 48 h and MICs were determined as described above. At least two independent assays were performed.

C. albicans ATCC 10231 [3] = assay: Propidium iodide influx assay (SYTO 9/PI); type: cell-based, Candida albicans; details: 8 μg/mL, 5 min
E. coli ATCC 25922 = assay: Checkerboard synergy with erythromycin; type: cell-based, Escherichia coli; details: Escherichia coli
Experimental: The combined effect of compound 1 and CTX for E. coli SA/2, VAN for E. faecalis B3/101, COL for E. coli 2252, erythromycin for E. coli ATCC 25922, and OXA for S. aureus 66/1 was evaluated by the checkerboard method. […] The interaction between compound 1 and erythromycin was assessed for E. coli ATCC 25922. Gram-negative bacteria are intrinsically resistant to erythromycin, a macrolide that inhibits protein synthesis, and cannot penetrate the outer membrane of Gram-negative bacteria, which is impermeable to hydrophobic antibiotics. Ascertain ceragenins have been previously described to be able to enhance the efficacy of such antibiotics, this possibility was investigated for compound 1 and a FICI of 0.6 was obtained.

increase of MIC in the presence of exogenous ergosterol (C. albicans ATCC 10231 [2]; 400 μg/mL ergosterol vs absence) [times]	MIC (C. albicans ATCC 10231 [2]; absence of exogenous ergosterol) [µg/mL]	MIC (C. albicans ATCC 10231 [2]; presence of 400 μg/mL of exogenous ergosterol) [µg/mL]	MIC (E. coli ATCC 25922; ATCC25922, E. coli ATCC 25922, erythromycin alone) [µg/mL]	MIC (E. coli ATCC 25922; ATCC25922, E. coli ATCC 25922, with 16 μg/mL of compound 1 (½×MIC)) [µg/mL]	Structure (SMILES)	mitochondrial activity (MTT reduction) vs untreated control (C. albicans ATCC 10231 [1])	reduction of SYTO 9/PI ratio vs untreated control (C. albicans ATCC 10231 [3])
–	–	–	–	–	C[C@@H](c1ncncc1F)[C@](O)(Cn1cncn1)c1ccc(F)cc1F [VRC, voriconazole]	identical effect	–
8	2 (≈ 2.16 µM)	16	–	–	C[C@@H]1[C@H](O)[C@@H](C)/C=C/C=C/C=C/C=C/C=C/C=C/C=C/[C@H](O[C@@H]2O[C@H](C)[C@@H](O)[C@H](N)[C@@H]2O)C[C@@H]2O[C@](O)(C[C@@H](O)C[C@@H](O)[C@H](O)CC[C@@H](O)C[C@@H](O)CC(=O)O[C@H]1C)C[C@H](O)[C@H]2C(=O)O [Amphotericin B]	significantly reduced	statistically significant
–	–	–	16	0.125	CC[C@H]1OC(=O)[C@H](C)[C@@H](O[C@H]2C[C@@](C)(OC)[C@@H](O)[C@H](C)O2)[C@H](C)[C@@H](O[C@@H]2O[C@H](C)C[C@H](N(C)C)[C@H]2O)[C@](C)(O)C[C@@H](C)C(=O)[C@H](C)[C@@H](O)[C@]1(C)O [erythromycin, reference compound]	–	–
